For this test, the system named is ID8Cosmc-KO. Put plainly: Survival of ID8Cosmc-KO-bearing mice, PAC-1 and 237 CAR-T combinations. The class given is in vivo, mouse. To be noted: single agent, PAC-1 100 mg/kg i.p. from day 40, three weeks 5 days ON, 2 days OFF; untreated 71 days; p<0.0001. As to the method:
FIG. 14A-B. PAC-1 enhanced efficacy of 237 CAR-T in late-stage ovarian cancer model. Survival curves of mice with established ID8Cosmc-KO tumors treated with a combination of PAC-1 and 237 CAR-T in comparison with their single-agent controls. (A) Mice with detectable tumors at day 40 post-tumor inoculation were administered with either PAC-1 (100 mg/kg) or vehicle intraperitoneally for three weeks at a “five days ON, 2 days OFF” treatment schedule. At day 60 post-tumor inoculation, mice were given either 237 CAR-T or mock T cells (5 million cells, >40% transduction efficiency) via i.p. injection. Cyclophosphamide (100 mg/kg, i.p.) were administered 24 hours prior to adoptive T cell transfer to deplete pre-existing lymphocytes. (B) Data were plotted with GraphPad Prism v10 using cumulative data across five independent experiments, with the indicated total n for each treatment arm. Median survival times are indicated; P-values were calculated using the Log-rank (Mantel-Cox) test.
FIG. 15A-B. PAC-1 at day 50 (or day 60) and 237 CAR-T at day 60 combination treatment. […] Median survival times are indicated; P-values were calculated using the Log-rank (Mantel-Cox) test. […]
FIG. 16A-B. 237 CAR-T at day 60 and PAC-1 at day 77 combination treatment. […] Median survival times are indicated; P-values were calculated using the Log-rank (Mantel-Cox) test. […]

Molecules are shown by their SMILES.

For the molecule `C=CCc1cccc(/C=N/NC(=O)CN2CCN(Cc3ccccc3)CC2)c1O` [PAC-1], the median survival is recorded as 90 days.

Values taken from patent US20260325508A1, “COMBINATION OF PAC-1 AND CAR T-CELL TREATMENTS” (THE BOARD OF TRUSTEES OF THE UNIVERSITY OF ILLINOIS, priority 2023, published 2026).
